Results taken from US20120165403A1, “METHODS OF INHIBITING THE ACTIVITY OF HSP90 AND/OR ARYL HYDROCARBON RECEPTOR” (UNIVERSITY OF ROCHESTER, priority 2004, published 2012).

Columns and labels:
AhR [1] = experiment: Immunocytochemistry of AhR subcellular localization in Hepa cells; assay type: cell-based, mouse; conditions: 1 h
Method: Hepa cells were plated onto four-well chamber slides (Becton Dickinson, Bedford, Mass.) at a density of 2.0×10^4 and incubated overnight. Cells were treated with either vehicle (DMSO), TCDD (150 pM), EGCG alone (200 μM), or EGCG in the presence of TCDD (150 pM) for 1 h. Cells were fixed with 3.7% formalin at room temperature for 10 minutes, followed by a four minute incubation in anhydrous methanol at 4° C. All antibodies were filtered through a 0.45 micron filter before staining Cells were blocked for one hour in phosphate buffered saline containing 4% BSA, incubated with anti-AhR at a 1:2000 dilution for two hours at room temperature, followed by a one hour incubation with 1:1000 anti-rabbit Alexa-Fluor conjugated secondary antibody (Molecular Probes, Eugene Oreg.). Nuclei were stained with DAPI (0.5 μg/ml) (Molecular Probes) for three minutes at room temperature. Slides were mounted with 50% glycerol and coverslipped. AhR staining and nuclear staining were visualized using a Nikon Eclipse TS110 fluorescent microscope (40× magnification). Fluorescent images were captured using SPOT advanced software.

AhR [2] = target: T1, AhR (Mus musculus, UniProt P30561); experiment: DNA binding of in vitro translated AhR and ARNT in RRL; assay type: biochemical
T1 construct: made in house; host or cells: TNT rabbit reticulocyte lysate
T1 sequence (P30561 10-805 limits assumed): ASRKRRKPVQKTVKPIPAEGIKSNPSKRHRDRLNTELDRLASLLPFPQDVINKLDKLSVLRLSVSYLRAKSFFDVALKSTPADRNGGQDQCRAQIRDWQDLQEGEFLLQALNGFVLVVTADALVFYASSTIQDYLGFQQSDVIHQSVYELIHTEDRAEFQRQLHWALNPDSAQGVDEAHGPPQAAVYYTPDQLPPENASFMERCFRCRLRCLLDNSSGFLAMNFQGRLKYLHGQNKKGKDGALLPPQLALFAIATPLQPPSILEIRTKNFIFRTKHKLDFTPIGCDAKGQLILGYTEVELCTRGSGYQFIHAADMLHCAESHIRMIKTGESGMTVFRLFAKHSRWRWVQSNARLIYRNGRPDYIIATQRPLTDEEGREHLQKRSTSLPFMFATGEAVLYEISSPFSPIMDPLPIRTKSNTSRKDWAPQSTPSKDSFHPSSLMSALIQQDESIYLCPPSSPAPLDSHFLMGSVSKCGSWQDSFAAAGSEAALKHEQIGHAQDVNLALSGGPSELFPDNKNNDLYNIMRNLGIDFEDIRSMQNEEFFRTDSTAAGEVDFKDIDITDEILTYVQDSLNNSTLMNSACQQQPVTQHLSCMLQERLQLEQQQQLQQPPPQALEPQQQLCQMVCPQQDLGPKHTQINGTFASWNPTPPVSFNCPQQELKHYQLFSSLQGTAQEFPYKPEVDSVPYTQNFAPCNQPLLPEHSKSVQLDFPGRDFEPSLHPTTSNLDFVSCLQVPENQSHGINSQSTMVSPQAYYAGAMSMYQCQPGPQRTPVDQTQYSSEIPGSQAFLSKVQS
Source text: The data provided above implicate a model where EGCG inhibits release of hsp90 from the AhR complex. This form of hsp90 appears to maintain its interaction with XAP2 (FIG. 4). However, from the above data, it remains to be determined whether 1) the hsp90-XAP2 complex remains bound to the AhR upon EGCG treatment, 2) EGCG prevents ARNT dimerization, 3) EGCG stabilizes the receptor in a different complex upon additional treatment with TCDD, and 4) if other proteins are present in this complex. Findings from the above investigations add some useful insight into the mechanism of action of EGCG. The mouse AhR used for these studies was in vitro transcribed in rabbit reticulocyte lysate (RRL) and immunoprecipitated using an antibody specific for amino acids 12-31. Although this antibody could precipitate the latent and TCDD-activated AhR complex from RRL, it was incapable of precipitating an EGCG-treated AhR. […] Furthermore, titration of Hepa cytosol into the RRL system restored the ability to immunoprecipitate ^35S-methionine-labeled in vitro transcribed AhR. Similar discrepancies between systems were observed utilizing DNA binding as an endpoint. […] This is in direct contrast to the lack of AhR transformation by EGCG observed in Hepa cytosol (FIG. 7). […] This EGCG-induced DNA binding complex could also be attenuated upon titration of Hepa cytosol into RRL. […]

O=C(O[C@@H]1Cc2c(O)cc(O)cc2O[C@@H]1c1cc(O)c(O)c(O)c1)c1cc(O)c(O)c(O)c1 [EGCG, epigallocatechin gallate]
effect on TCDD induced nuclear localization of the AhR (AhR [1]; 200 μM EGCG with 150 pM TCDD): did not attenuate this TCDD induced nuclear localization
subcellular localization of the AhR, treatment alone (AhR [1]; EGCG 200 μM or TCDD 150 pM): remarkable redistribution of the AhR from the cytosol to the nucleus
DNA binding of AhR and ARNT, treatment alone (AhR [2]): formation of a strong DRE-AhR-ARNT shifted complex
